According to patent EP2265599B1, “CRYSTAL FORM OF PHENYLAMINOPYRIMIDINE DERIVATIVE” (Natco Pharma Limited, priority 2008, dated 2009):
Entries after “also recorded” stand apart in the source; their conditions may differ. Counter-ions that a name gives are not always drawn.

Legend:
[1] = Thermodynamic stability of the crystal forms at room temperature; format: physicochemical
[2] = Heat stability of Form-III crystal form (heated in oil bath, examined by XRPD); format: physicochemical; details: 6 hours, form-I and Form-II below the detection level
From the text: Pure Form-III crystal form (1 gm) prepared by the present process was placed in a boiling tube and heated gradually in oil bath. Then the substance was examined by XRPD.

[3] = Stability of Form-III crystal form under accelerated stress conditions in bulk and formulated capsule; format: physicochemical
From the text: Table 5 - Stability of Form-III crystal form in bulk and formulated capsule

[4] = tested on: 4910 human glioma xenograft cells; assay: Glioma radiation study, intracranially implanted 4910 cells; format: in vivo, Nude mice; details: terminated at day 40
Experimental: Nude mice were intracranially implanted with 4910 human glioma xenograft cells (1x10^6 cells). Ten days after implantation mice were treated with AN019, AN024 or temozolomide with or without radiation (5Gy/week). The experiment was terminated at day 40 post implantation.

[5] = tested on: K562 luc human leukemia cells; assay: Low dose oral treatment of nude mice implanted with K562 luc cells (luciferase expression); format: in vivo; details: oral administration
Experimental: Nude mice (nu/nu) were implanted with K562 cells (1x106) normal/luc via tail vein. Five mice were used per group and divided into 24 groups + 2 control. All groups were implanted with K562 normal/luc cells. Of the 24 groups, 12 were used for luciferase studies whereas the other 12 were used for blood smear count studies.
Drugs were administered by oral gavage (2% gum acacia and 2% SLS in an aqueous suspension).

[6] = tested on: K562 luciferase expressing cells; assay: Leukemic survival study, K562 luciferase expressing cells implanted intraperitoneally; format: in vivo, nude mice
From the text: K562 luciferase expressing cells were implanted intraperitoneally into nude mice; the mice were scanned using the xenogeny IVIS image station after ip injections of luciferin does determine implantations. Drug treatment was started as in previous studies day 15 after implantation. The animals were given treatment till day 42, after which drug treatment was stopped and survival of the animals determined as per the animal care regulations. […] Drug treatment was withdrawn on day 42 post implantation and survival of animals determined.

Question: With `Cc1ccc(NC(=O)c2cc(C(F)(F)F)cc(C(F)(F)F)c2)cc1Nc1nccc(-c2cccnc2)n1` [Form-I, (3,5-bis trifluoromethyl)-N-[4-methyl-3-(4-pyridin-3yl-pyrimidin-2ylamino)-phenyl]-benzamide] as the compound, how does the “stability of crystal form at room temperature” value (shortened to “stability of crystal form”) [1] read?
Answer: The value was “metastable at room temperature”.

Question: For `Cc1ccc(NC(=O)c2cc(C(F)(F)F)cc(C(F)(F)F)c2)cc1Nc1nccc(-c2cccnc2)n1` [Form-III, (3,5-bis trifluoromethyl)-N-[4-methyl-3-(4-pyridin-3yl-pyrimidin-2ylamino)-phenyl]-benzamide], which “Polymorph form detected after heating” value ([2]; 110°C) is on record?
Answer: Its value is “Form-III”.

Question: And the “Polymorph form detected after heating” value ([2]; 120°C)?
Answer: Its value is “Form-III”.

Question: And the “Polymorph form detected after heating” value ([2]; 130°C)?
Answer: Its value is “non-metastable and stable when heated at 130 °C for 6 hours; also recorded: stable to heat even at 130 °C for 6 hours; also recorded: Form-III”.

Question: And the “Polymorph content of bulk compound of formula I, Polymorph form detected” value ([3]; 0 Month at 40±2°C / 75 ±5% RH)?
Answer: Its value is “Form-III”.

Question: And the “Polymorph content of bulk compound of formula I, Polymorph form detected” value ([3]; 1 Month at 40±2°C / 75 ±5% RH)?
Answer: Its value is “Form-III”.

Question: And the “Polymorph content of bulk compound of formula I, Polymorph form detected” value ([3]; 2 Months at 40±2°C / 75 ±5% RH)?
Answer: Its value is “Form-III”.

Question: What about the “Polymorph content of bulk compound of formula I, Polymorph form detected” value ([3]; 3 Months at 40±2°C / 75 ±5% RH) of the same compound?
Answer: Its value is “Form-III”.

Question: What about the “Polymorph content of bulk compound of formula I, Polymorph form detected” value ([3]; 6 Months at 40±2°C / 75 ±5% RH) of the same compound?
Answer: The value was “Form-III”.

Question: And the “Polymorph content of Formula I in formulated capsule, Polymorph form detected” value (shortened to “Polymorph content of Formula I”) ([3]; 0 Month at 40±2°C / 75 ±5% RH)?
Answer: The value was “Form-III”.

Question: And the “Polymorph content of Formula I” value ([3]; 1 Month at 40±2°C / 75 ±5% RH)?
Answer: Its value is “Form-III”.

Question: And the “Polymorph content of Formula I” value ([3]; 2 Months at 40±2°C / 75 ±5% RH)?
Answer: Its value is “Form-III”.

Question: What about the “Polymorph content of Formula I” value ([3]; 3 Months at 40±2°C / 75 ±5% RH) of the same compound?
Answer: Its value is “Form-III”.

Question: And the “Polymorph content of Formula I” value ([3]; 6 Months at 40±2°C / 75 ±5% RH)?
Answer: Its value is “Form-III”.

Question: What about the “stability of crystal form” value [1] of the same compound?
Answer: The value was “thermodynamically stable form at room temperature”.

Question: Which “stability of crystal form” value [1] does the source give for `Cc1ccc(NC(=O)c2cc(C(F)(F)F)cc(C(F)(F)F)c2)cc1Nc1nccc(-c2cccnc2)n1` [Form-II, (3,5-bis trifluoromethyl)-N-[4-methyl-3-(4-pyridin-3yl-pyrimidin-2ylamino)-phenyl]-benzamide] here?
Answer: The value was “metastable at room temperature”.

Question: With `Cn1nnc2c(C(N)=O)ncn2c1=O` [Temozolomide, reference compound] as the compound, how does the “animals cured / no observable intracranial tumor” value ([4]; with radiation (5Gy/week)) read?
Answer: The value was 2 of 10 animals.

Question: What about the “animals cured / complete absence of intracranial tumours” value ([4]; without radiation, treatment from ten days after implantation) of the same compound?
Answer: The value was 3 of 10 animals.

Question: Which luciferase expression ([5]; 10mg/kg) does the source give for `Cc1ccc(NC(=O)c2ccc(CN3CCN(C)CC3)cc2)cc1Nc1nccc(-c2cccnc2)n1` [Imatinib, Imatinib mesylate, reference compound] here?
Answer: The luciferase expression was “did show a retardation of luciferase expression”.

Question: And the luciferase expression ([5]; 20mg/kg)?
Answer: Its luciferase expression is “did show a retardation of luciferase expression”.

Question: What about the “leukemic symptoms after treatment withdrawal” value ([6]; drug treatment withdrawn on day 42) of the same compound?
Answer: The value was “showed reoccurrences of leukemic symptoms after treatment withdrawal”.

Question: And the “Blast cell count from blood smears after withdrawal of drug treatment” value ([6]; drug treatment withdrawn on day 42 (Fig. 21))?
Answer: Its value is “found to be ineffective”.

Question: What about the mortality ([6]; treatment from day 15 till day 42, then withdrawn, AN024 death determined to be other than leukemia) of the same compound?
Answer: Its mortality is “showed mortality on day 55, 56, 57 and 58”.
